# Test results published in US20030114673A1, “2-AMINO-5,6-DIHALO-3,4-DIHYDROQUINAZOLINES WITH BLOOD PLATELET REDUCING PROPERTIES” (priority 2002, published 2003).
# Counter-ions that a name gives are not always drawn.
# Tests used:
# [1] = set-up: species or system Rhesus Monkeys; conditions: rhesus monkey, in vivo
# Description: In a recent pharmacokinetic and excretion study of [^14C]
# [2] = In vitro metabolism of Anagrelide in human whole blood; assay type: in vitro ADME
# Description: (§1) Metabolism of Anagrelide was examined in a number of in vitro systems including rat and human liver microsomes, human whole blood, human bone marrow cells and rat intestinal mucosa. […] It appears that in vivo metabolism occurs by a route that cannot be readily mimicked in vitro. It is hypothesized that the first step of in vivo metabolism involves hydroxylation of the carbon α to the carbonyl followed by amide hydrolysis and loss of the elements of glyoxylic acid.
# [3] = In vitro metabolism of Anagrelide in rat liver microsomes; assay type: in vitro ADME
# Description: as §1
# [4] = cited from earlier work
# [5] = In vitro metabolism of Anagrelide in human liver microsomes; assay type: in vitro ADME
# Description: as §1
# [6] = In vitro metabolism of Anagrelide in rat intestinal mucosa; assay type: in vitro ADME
# Description: as §1
# [7] = clinical use of Anagrelide; cited from earlier work
# [8] = In vitro metabolism of Anagrelide in human bone marrow cells; assay type: in vitro ADME
# Description: as §1
# [9] = Cardiovascular screening and side effect profile of the compound; assay type: in vivo
# platelet count = test: Platelet reducing properties; conditions: in vivo
# Solubility in water = assay type: physicochemical; conditions: salt form as named
# Description: 2-Amino-5,6-dichloro-3,4-dihydroquinazoline (compound (E) wherein X and Y are both Cl) is the preferred compound for use in reducing the platelet count in patients and is preferably provided as the hydrobromide salt which is water soluble.
# CD15+ myeloid lineage = test: Effect on the CD15+ myeloid lineage in vitro; assay type: cell-based
# platelet aggregation = test: Platelet aggregation; assay type: cell-based; conditions: even at high concentrations (10 μg/mL)
# [10] = test system: circulating platelet levels; test: Daily intraperitoneal injection in mice, circulating platelet levels and safety; assay type: in vivo
# Protocol: Administration of 100 μg/day of the preferred compound was sufficient to decrease platelet counts within 24-48 hours stabilizing to 50% of normal by day 5.
# megakaryocytic lineage = test: Inhibition of megakaryocytic endoreplication; assay type: cell-based
structure (smiles),measurement,setting,value
"O=C1CN2Cc3c(ccc(Cl)c3Cl)N=C2N1 [Anagrelide, 6,7-dichloro-1,5-dihydroimidazo-[2,1-b]-quinazolin-2(3H)-one]","detection of the human metabolite 2-amino-5,6-dichloro-3,4-dihydroquinazoline",[1],"no human metabolite (2-amino-5,6-dichloro-3,4-dihydroquinazoline) was detected"
same,metabolism in vitro,[2],completely resistant to metabolism
same,metabolism in vitro,[3],completely resistant to metabolism
same,Anagrelide dose excreted as unchanged drug in the urine,[4]; human subjects,< 1%
same,peak plasma concentrations of the parent drug,[4]; human subjects,6 ng/mL
same,urinary radioactivity accounted for by a minimum of four to five metabolites,"[4]; human, in vivo",over 75%
same,metabolism in vitro,[5],completely resistant to metabolism
same,metabolism in vitro,[6],completely resistant to metabolism
same,congestive heart failure (cardiovascular side effect incidence),[7],1.5%
same,palpitations (cardiovascular side effect incidence),[7],26.1%
same,tachycardia (cardiovascular side effect incidence),[7],7.5%
same,vasodilation (cardiovascular side effect incidence),[7],< 5%
same,metabolism in vitro,[8],completely resistant to metabolism
"NC1=Nc2ccc(Cl)c(Cl)c2CN1 [2-amino-5,6-dichloro-3,4-dihydroquinazoline]",antihypertensive activity,[9]; cardiovascular screening,Only very mild antihypertensive activity
same,side effects of inotropy and haemorrhaging associated with Anagrelide,[9]; in vivo,without the side effects of inotropy and haemorrhaging
same,reduction of platelet counts,platelet count,active molecule for causing reduction of platelet counts
O=C1CN2Cc3c(ccc(Cl)c3Cl)N=C2N1 [Anagrelide hydrochloride],solubility in water,Solubility in water,nearly insoluble in water
"Br.NC1=Nc2ccc(Cl)c(Cl)c2CN1 [2-amino-5,6-dichloro-3,4-dihydroquinazoline hydrobromide]",solubility in water,Solubility in water,water soluble
same,effect on the CD15+ myeloid lineage,CD15+ myeloid lineage,no effect
same,inhibition of platelet aggregation,platelet aggregation,did not inhibit platelet aggregation
same,circulating platelet levels,"[10]; 6- to 8-month old mice, daily intraperitoneal injection",dose-dependent decrease
same,time to decrease in platelet counts,"[10]; mice, 100 μg/day intraperitoneal",24 to 48 h
same,platelet counts stabilized level,"[10]; mice, 100 μg/day intraperitoneal, by day 5",50 % of normal
same,apparent signs of toxicity or haemorrhaging,"[10]; mice, high doses (300 μg)","did not alter white blood cell counts, bleeding time or lead to any apparent signs of toxicity or haemorrhaging"
same,inhibition of megakaryocytic endoreplication,megakaryocytic lineage,profound inhibition
same,dose for inhibition of megakaryocytic endoreplication relative to doses reported for Anagrelide,megakaryocytic lineage; compared with those reported for Anagrelide,500 times less
